How the values were obtained:
Experiment in all cases: relative viability (nuclei count vs DMSO), 5 days (fraction); higher = more cells survive
[1] = test system: NCI-H3122
How it was run: (§1)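 For relative viability, nuclei counts in treated wells were divided by those in vehicle wells. Lung cancer cell lines had been pin-tool dosed in 1536-well plates the day after seeding and cultured for 5 days, then fixed and stained in one step (final 0.05% Triton X-100, 1% formaldehyde, 1 ug/ml Hoechst) and imaged at 4×. Doses were one drug alone or a fixed anchor-drug dose plus five library-drug doses (not always all listed) in √10 steps, and values are duplicate-plate medians.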

[2] = test system: NCI-H596
How it was run: as §1

[3] = test system: PC-3 [JPC-3]
How it was run: as §1

[4] = test system: NCI-H2170
How it was run: as §1

[5] = test system: LK-2
How it was run: as §1

[6] = test system: NCI-H2228
How it was run: as §1

[7] = test system: NCI-H1944
How it was run: as §1

[8] = test system: NCI-H2009
How it was run: as §1

[9] = test system: LXF-289
How it was run: as §1

[10] = test system: HOP-62
How it was run: as §1

[11] = test system: SK-MES-1
How it was run: as §1

[12] = test system: NCI-H727
How it was run: as §1

[13] = test system: NCI-H1993
How it was run: as §1

[14] = test system: NCI-H322M
How it was run: as §1

[15] = test system: SW 1573
How it was run: as §1

[16] = test system: HARA
How it was run: as §1

[17] = test system: ABC-1
How it was run: as §1

[18] = test system: NCI-H1792
How it was run: as §1

[19] = test system: A-427
How it was run: as §1

[20] = test system: EMC-BAC-2
How it was run: as §1

Work on `Nc1ccn([C@@H]2O[C@H](CO)[C@@H](O)[C@@H]2O)c(=O)n1` [Cytarabine] + CS(=O)(=O)CCNCc1ccc(-c2ccc3ncnc(Nc4ccc(OCc5cccc(F)c5)c(Cl)c4)c3c2)o1 [Lapatinib] (partner 2 µM) yielded a relative viability ([1]; first compound 0.005 µM) of 1.12, a relative viability ([1]; first compound 0.01581 µM) of 0.912 and a relative viability ([1]; first compound 0.05 µM) of 0.91. For the same compound, the relative viability ([1]; first compound 0.1581 µM) was 0.676, the relative viability ([1]; first compound 0.5 µM) was 0.551 and the relative viability ([2]; first compound 0.005 µM) was 1.03. It also gave a relative viability ([2]; first compound 0.01581 µM) of 0.903, a relative viability ([2]; first compound 0.05 µM) of 0.785 and a relative viability ([2]; first compound 0.1581 µM) of 0.746. It also gave a relative viability ([2]; first compound 0.5 µM) of 0.609, a relative viability ([3]; first compound 0.005 µM) of 0.435 and a relative viability ([3]; first compound 0.01581 µM) of 0.465. The relative viability ([3]; first compound 0.05 µM) was 0.426, the relative viability ([3]; first compound 0.1581 µM) was 0.396 and the relative viability ([3]; first compound 0.5 µM) was 0.389. It also gave a relative viability ([4]; first compound 0.01581 µM) of 0.233, a relative viability ([4]; first compound 0.05 µM) of 0.231 and a relative viability ([4]; first compound 0.1581 µM) of 0.19. It also gave a relative viability ([4]; first compound 0.5 µM) of 0.182, a relative viability ([5]; first compound 0.005 µM) of 0.627 and a relative viability ([5]; first compound 0.01581 µM) of 0.479. The relative viability ([5]; first compound 0.05 µM) was 0.395, the relative viability ([5]; first compound 0.1581 µM) was 0.248 and the relative viability ([5]; first compound 0.5 µM) was 0.283. For the same compound, the relative viability ([6]; first compound 0.005 µM) was 0.632, the relative viability ([6]; first compound 0.01581 µM) was 0.562 and the relative viability ([6]; first compound 0.05 µM) was 0.315. The relative viability ([6]; first compound 0.1581 µM) was 0.183, the relative viability ([6]; first compound 0.5 µM) was 0.136 and the relative viability ([7]; first compound 0.005 µM) was 0.603. For the same compound, the relative viability ([7]; first compound 0.01581 µM) was 0.336, the relative viability ([7]; first compound 0.05 µM) was 0.318 and the relative viability ([7]; first compound 0.1581 µM) was 0.177. For the same compound, the relative viability ([7]; first compound 0.5 µM) was 0.153, the relative viability ([8]; first compound 0.005 µM) was 0.992 and the relative viability ([8]; first compound 0.01581 µM) was 0.878. For the same compound, the relative viability ([8]; first compound 0.05 µM) was 0.444, the relative viability ([8]; first compound 0.1581 µM) was 0.694 and the relative viability ([8]; first compound 0.5 µM) was 0.349. It also gave a relative viability ([9]; first compound 0.005 µM) of 0.806, a relative viability ([9]; first compound 0.01581 µM) of 0.851 and a relative viability ([9]; first compound 0.05 µM) of 0.809. The relative viability ([9]; first compound 0.1581 µM) was 0.429, the relative viability ([9]; first compound 0.5 µM) was 0.339 and the relative viability ([10]; first compound 0.005 µM) was 0.825. The relative viability ([10]; first compound 0.01581 µM) was 0.821, the relative viability ([10]; first compound 0.05 µM) was 0.385 and the relative viability ([10]; first compound 0.1581 µM) was 0.134. It also gave a relative viability ([10]; first compound 0.5 µM) of 0.0735, a relative viability ([11]; first compound 0.005 µM) of 0.416 and a relative viability ([11]; first compound 0.01581 µM) of 0.396. The relative viability ([11]; first compound 0.05 µM) was 0.328, the relative viability ([11]; first compound 0.1581 µM) was 0.228 and the relative viability ([11]; first compound 0.5 µM) was 0.196. It also gave a relative viability ([12]; first compound 0.005 µM) of 0.766, a relative viability ([12]; first compound 0.01581 µM) of 0.602 and a relative viability ([12]; first compound 0.05 µM) of 0.606. For the same compound, the relative viability ([12]; first compound 0.1581 µM) was 0.339, the relative viability ([12]; first compound 0.5 µM) was 0.28 and the relative viability ([13]; first compound 0.005 µM) was 0.71. It also gave a relative viability ([13]; first compound 0.01581 µM) of 0.929, a relative viability ([13]; first compound 0.05 µM) of 0.682 and a relative viability ([13]; first compound 0.1581 µM) of 0.618. The relative viability ([13]; first compound 0.5 µM) was 0.546, the relative viability ([14]; first compound 0.005 µM) was 0.585 and the relative viability ([14]; first compound 0.01581 µM) was 0.609. It also gave a relative viability ([14]; first compound 0.05 µM) of 0.459, a relative viability ([14]; first compound 0.1581 µM) of 0.354 and a relative viability ([14]; first compound 0.5 µM) of 0.348. It also gave a relative viability ([15]; first compound 0.005 µM) of 1.17, a relative viability ([15]; first compound 0.01581 µM) of 0.879 and a relative viability ([15]; first compound 0.05 µM) of 0.952. It also gave a relative viability ([15]; first compound 0.1581 µM) of 0.606, a relative viability ([15]; first compound 0.5 µM) of 0.329 and a relative viability ([16]; first compound 0.005 µM) of 0.692. For the same compound, the relative viability ([16]; first compound 0.01581 µM) was 0.51, the relative viability ([16]; first compound 0.05 µM) was 0.365 and the relative viability ([16]; first compound 0.1581 µM) was 0.189. For the same compound, the relative viability ([16]; first compound 0.5 µM) was 0.132, the relative viability ([17]; first compound 0.005 µM) was 1.29 and the relative viability ([17]; first compound 0.01581 µM) was 1.24. For the same compound, the relative viability ([17]; first compound 0.1581 µM) was 1.16, the relative viability ([17]; first compound 0.5 µM) was 1.03 and the relative viability ([18]; first compound 0.005 µM) was 0.878. The relative viability ([18]; first compound 0.01581 µM) was 0.874, the relative viability ([18]; first compound 0.05 µM) was 0.366 and the relative viability ([18]; first compound 0.1581 µM) was 0.548. It also gave a relative viability ([18]; first compound 0.5 µM) of 0.47, a relative viability ([19]; first compound 0.005 µM) of 0.93 and a relative viability ([19]; first compound 0.01581 µM) of 0.565. For the same compound, the relative viability ([19]; first compound 0.05 µM) was 0.274, the relative viability ([19]; first compound 0.1581 µM) was 0.184 and the relative viability ([19]; first compound 0.5 µM) was 0.183. It also gave a relative viability ([20]; first compound 0.005 µM) of 0.857, a relative viability ([20]; first compound 0.01581 µM) of 0.85 and a relative viability ([20]; first compound 0.05 µM) of 0.763. The relative viability ([20]; first compound 0.1581 µM) was 0.283 and the relative viability ([20]; first compound 0.5 µM) was 0.287.

— the supplement of paper PMC10307832
